Patent US20240067693A1, “POLYPEPTIDES AND USES THEREOF” (MEDIMMUNE LIMITED, priority 2020, published 2024)
Numbered stars: 1 amine (or outer) side, 2 acyl side, 3 side chain; on linkers, the order of the positions; unused ones are H or OH. Bridge positions count the residues as written; N and C are the ends. Square brackets hold non-standard residues; d marks the D form. Side chains are listed from the residue outwards. Peptide text beside a SMILES is read from it. * marks the point of attachment. C18 diacid = O=C(O)CCCCCCCCCCCCCCCCC(=O)*; γGlu = O=C(O)[C@H](CCC(=O)[*:2])N[*:1]; Dab = NCC[C@H](N)C(=O)O; Aib = CC(C)(N)C(=O)O

Experiments:
[1] = molecular target: T1, human amylin receptor (calcitonin receptor co-expressed with receptor activity modifying protein, RAMP3) (hAMYR3) (Homo sapiens, UniProt O60896+P30988); test: cAMP production in 1321N1 cells with stable recombinant expression of human amylin receptor (hAMYR3); assay type: cell-based; settings: for Ratio (selectivity hAMYR vs hCTR, ratio of EC50 values at the two receptors): EC50 hCTR / EC50 hAMYR3; for EC50: cAMP, 1321N1 cells, assay buffer with 0.1% BSA, read-out: EC50 (pM) hAMYR3
T1 construct: expressed in transfected cells
T1 sequence (P30988 25-474): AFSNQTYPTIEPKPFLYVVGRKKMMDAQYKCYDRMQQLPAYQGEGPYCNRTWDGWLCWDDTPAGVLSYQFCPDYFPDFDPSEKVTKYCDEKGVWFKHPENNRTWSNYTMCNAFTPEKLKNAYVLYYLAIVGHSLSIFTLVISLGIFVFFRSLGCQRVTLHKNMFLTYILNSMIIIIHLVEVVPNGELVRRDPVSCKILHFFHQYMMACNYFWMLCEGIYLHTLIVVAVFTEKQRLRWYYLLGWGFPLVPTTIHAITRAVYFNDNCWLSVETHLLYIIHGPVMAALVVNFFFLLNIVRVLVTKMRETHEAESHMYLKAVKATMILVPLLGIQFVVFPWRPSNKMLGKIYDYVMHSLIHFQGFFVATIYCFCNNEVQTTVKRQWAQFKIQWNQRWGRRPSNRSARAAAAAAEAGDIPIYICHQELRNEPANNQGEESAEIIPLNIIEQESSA
T1 sequence (O60896 24-148 partner): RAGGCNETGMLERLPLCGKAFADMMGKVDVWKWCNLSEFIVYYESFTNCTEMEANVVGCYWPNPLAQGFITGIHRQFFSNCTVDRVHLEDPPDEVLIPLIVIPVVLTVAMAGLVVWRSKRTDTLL
How it was run: (§1)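 EC50 values come from 4-parameter logistic fits of HTRF cAMP signal, normalised to maximal calcitonin or amylin effect. Peptides were tested in duplicate for 30 min at RT in IBMX-containing (0.5 mM) BSA/HEPES buffer pH 7.4 on stable 1321N1 (human CTR, AMYR3) or HEK (rat CTR, AMYR3) lines.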

[2] = molecular target: T2, human calcitonin receptor (hCTR) (Homo sapiens, UniProt P30988); test: cAMP production in 1321N1 cells with stable recombinant expression of human calcitonin receptor (hCTR); assay type: cell-based; settings: cAMP, 1321N1 cells, assay buffer with 0.1% BSA; read-out: EC50 (pM) hCTR
T2 construct: expressed in transfected cells
T2 sequence (P30988 25-474): T1 sequence (P30988 25-474)
How it was run: as §1

Compound	Ratio (selectivity hAMYR vs hCTR, ratio of EC50 values at the two receptors) [1]	EC50 [1] [pM]	EC50 [2] [pM]
CC[C@H](C)[C@H](NC(=O)[C@@H]1CCCN1C(=O)CNC(=O)[C@H](Cc1ccccc1)NC(=O)[C@H](CC(N)=O)NC(=O)[C@H](CC(N)=O)NC(=O)[C@H](CO)NC(=O)[C@H](CO)NC(=O)[C@H](Cc1c[nH]cn1)NC(=O)C(C)(C)NC(=O)[C@H](CC(C)C)NC(=O)[C@H](Cc1ccccc1)NC(=O)[C@H](CC(N)=O)NC(=O)[C@H](C)NC(=O)[C@H](CC(C)C)NC(=O)[C@H](CCCNC(=N)N)NC(=O)[C@H](CCC(N)=O)NC(=O)[C@@H](NC(=O)[C@H](C)NC(=O)[C@@H]1CSSC[C@H](NC(=O)[C@H](CCCCN)NC(=O)[C@@H](N)CCCCNC(=O)CC[C@H](NC(=O)CCCCCCCCCCCCCCCCC(=O)O)C(=O)O)C(=O)N[C@@H](CC(N)=O)C(=O)N[C@@H]([C@@H](C)O)C(=O)N[C@@H](C)C(=O)N[C@@H]([C@@H](C)O)C(=O)N1)[C@@H](C)O)C(=O)N[C@@H](CC(C)C)C(=O)N1CCC[C@H]1C(=O)N1CCC[C@H]1C(=O)N[C@H](C(=O)N[C@@H](Cc1c[nH]cn1)C(=O)N[C@H](C(=O)NCC(=O)N[C@@H](CO)C(=O)N[C@@H](CCC(=O)O)C(=O)N[C@H](C(=O)N[C@@H](Cc1ccc(O)cc1)C(N)=O)[C@@H](C)O)C(C)C)[C@@H](C)O [Peptide 146] (H-K([γGlu-C18 diacid])KCNTATCATQRLANFL[Aib]HSSNNFGPILPPTHVGSETY-NH2; disulfide 3-8; N-terminus assumed)	1.9	2530	4870
CC[C@H](C)[C@H](NC(=O)[C@@H]1CCCN1C(=O)CNC(=O)[C@H](Cc1ccccc1)NC(=O)[C@H](Cc1c[nH]cn1)NC(=O)[C@H](CC(N)=O)NC(=O)[C@H](CO)NC(=O)[C@H](CO)NC(=O)[C@H](Cc1c[nH]cn1)NC(=O)C(C)(C)NC(=O)[C@H](CC(C)C)NC(=O)[C@H](Cc1ccccc1)NC(=O)[C@H](CC(N)=O)NC(=O)[C@H](C)NC(=O)[C@H](CC(C)C)NC(=O)[C@H](CCCNC(=N)N)NC(=O)[C@H](CCC(N)=O)NC(=O)[C@@H](NC(=O)[C@H](C)NC(=O)[C@@H]1CSSC[C@H](NC(=O)[C@H](CCCCN)NC(=O)[C@@H](N)CCCCNC(=O)CC[C@H](NC(=O)CCCCCCCCCCCCCCCCC(=O)O)C(=O)O)C(=O)N[C@@H](CC(N)=O)C(=O)N[C@@H]([C@@H](C)O)C(=O)N[C@@H](C)C(=O)N[C@@H]([C@@H](C)O)C(=O)N1)[C@@H](C)O)C(=O)N[C@@H](CC(C)C)C(=O)N1CCC[C@H]1C(=O)N1CCC[C@H]1C(=O)N[C@H](C(=O)N[C@@H](CC(N)=O)C(=O)N[C@H](C(=O)NCC(=O)N[C@@H](CO)C(=O)N[C@@H](CCC(=O)O)C(=O)N[C@H](C(=O)N[C@@H](Cc1ccc(O)cc1)C(N)=O)[C@@H](C)O)C(C)C)[C@@H](C)O [Peptide 147] (H-K([γGlu-C18 diacid])KCNTATCATQRLANFL[Aib]HSSNHFGPILPPTNVGSETY-NH2; disulfide 3-8; N-terminus assumed)	1.9	802	1510
CC[C@H](C)[C@H](NC(=O)[C@@H]1CCCN1C(=O)CNC(=O)[C@H](Cc1ccccc1)NC(=O)[C@H](CC(N)=O)NC(=O)[C@H](CC(N)=O)NC(=O)[C@H](CO)NC(=O)[C@H](CO)NC(=O)[C@H](Cc1c[nH]cn1)NC(=O)C(C)(C)NC(=O)[C@H](CC(C)C)NC(=O)[C@H](Cc1ccccc1)NC(=O)[C@H](CC(N)=O)NC(=O)[C@H](C)NC(=O)[C@H](CC(C)C)NC(=O)[C@H](CCCNC(=N)N)NC(=O)[C@H](CCC(N)=O)NC(=O)[C@@H](NC(=O)[C@H](C)NC(=O)[C@@H]1CSSC[C@H](NC(=O)[C@H](CCCCN)NC(=O)[C@@H](N)CCCCNC(=O)CC[C@H](NC(=O)CCCCCCCCCCCCCCCCC(=O)O)C(=O)O)C(=O)N[C@@H](CC(N)=O)C(=O)N[C@@H]([C@@H](C)O)C(=O)N[C@@H](C)C(=O)N[C@@H]([C@@H](C)O)C(=O)N1)[C@@H](C)O)C(=O)N[C@@H](CC(C)C)C(=O)N1CCC[C@H]1C(=O)N1CCC[C@H]1C(=O)N[C@H](C(=O)N[C@@H](CC(N)=O)C(=O)N[C@H](C(=O)NCC(=O)N1CCC[C@H]1C(=O)N[C@@H](CC(N)=O)C(=O)N[C@H](C(=O)N[C@@H](Cc1ccc(O)cc1)C(N)=O)[C@@H](C)O)C(C)C)[C@@H](C)O [Peptide 148] (H-K([γGlu-C18 diacid])KCNTATCATQRLANFL[Aib]HSSNNFGPILPPTNVGPNTY-NH2; disulfide 3-8)	3.8	191	728
CC[C@H](C)[C@H](NC(=O)[C@@H]1CCCN1C(=O)CNC(=O)[C@H](Cc1ccccc1)NC(=O)[C@H](CC(N)=O)NC(=O)[C@H](CCN)NC(=O)[C@H](CO)NC(=O)[C@H](CO)NC(=O)[C@H](Cc1c[nH]cn1)NC(=O)C(C)(C)NC(=O)[C@H](CC(C)C)NC(=O)[C@H](Cc1ccccc1)NC(=O)[C@H](CC(N)=O)NC(=O)[C@H](C)NC(=O)[C@H](CC(C)C)NC(=O)[C@H](CCCNC(=N)N)NC(=O)[C@H](CCC(N)=O)NC(=O)[C@@H](NC(=O)[C@H](C)NC(=O)[C@@H]1CSSC[C@H](NC(=O)[C@@H](N)CCCCNC(=O)CC[C@H](NC(=O)CCCCCCCCCCCCCCCCC(=O)O)C(=O)O)C(=O)N[C@@H](CC(N)=O)C(=O)N[C@@H]([C@@H](C)O)C(=O)N[C@@H](C)C(=O)N[C@@H]([C@@H](C)O)C(=O)N1)[C@@H](C)O)C(=O)N[C@@H](CC(C)C)C(=O)N1CCC[C@H]1C(=O)N1CCC[C@H]1C(=O)N[C@H](C(=O)N[C@@H](CC(N)=O)C(=O)N[C@H](C(=O)NCC(=O)N[C@@H](CO)C(=O)N[C@@H](CC(N)=O)C(=O)N[C@H](C(=O)N[C@@H](Cc1ccc(O)cc1)C(N)=O)[C@@H](C)O)C(C)C)[C@@H](C)O [Peptide 150, K(γE-C18diacid)[CNTATC]ATQRLANFL(Aib)HSS(Dab)NFGPILPPTNVGSNTY-amide] (H-K([γGlu-C18 diacid])CNTATCATQRLANFL[Aib]HSS[Dab]NFGPILPPTNVGSNTY-NH2; disulfide 2-7; N-terminus assumed)	23.4	179	4180
CC[C@H](C)[C@H](NC(=O)[C@@H]1CCCN1C(=O)CNC(=O)[C@H](Cc1ccccc1)NC(=O)[C@H](CC(N)=O)NC(=O)[C@H](CC(N)=O)NC(=O)[C@H](CO)NC(=O)[C@H](CO)NC(=O)[C@H](Cc1c[nH]cn1)NC(=O)C(C)(C)NC(=O)[C@H](CC(C)C)NC(=O)[C@H](Cc1ccccc1)NC(=O)[C@H](CC(N)=O)NC(=O)[C@H](C)NC(=O)[C@H](CC(C)C)NC(=O)[C@H](CCCNC(=N)N)NC(=O)[C@H](CCC(N)=O)NC(=O)[C@@H](NC(=O)[C@H](C)NC(=O)[C@@H]1CSSC[C@H](NC(=O)[C@@H](N)CCCCNC(=O)CC[C@H](NC(=O)CCCCCCCCCCCCCCCCC(=O)O)C(=O)O)C(=O)N[C@@H](CC(N)=O)C(=O)N[C@@H]([C@@H](C)O)C(=O)N[C@@H](C)C(=O)N[C@@H]([C@@H](C)O)C(=O)N1)[C@@H](C)O)C(=O)N[C@H](CC(C)C)C(=O)N1CCC[C@H]1C(=O)N1CCC[C@H]1C(=O)N[C@H](C(=O)N[C@@H](CC(N)=O)C(=O)N[C@H](C(=O)NCC(=O)N[C@@H](CO)C(=O)N[C@@H](CC(N)=O)C(=O)N[C@H](C(=O)N[C@@H](Cc1ccc(O)cc1)C(N)=O)[C@@H](C)O)C(C)C)[C@@H](C)O [Peptide 151, K(γE-C18diacid)[CNTATC]ATQRLANFL(Aib)HSSNNFGPI(dL)PPTNVGSNTY-amide] (H-K([γGlu-C18 diacid])CNTATCATQRLANFL[Aib]HSSNNFGPI[dL]PPTNVGSNTY-NH2; disulfide 2-7; N-terminus assumed)	14.7	61	898
